Experimental data from US20070167329A1, “Plant growth regulation” (Bayer CropScience GmbH, priority 2003, published 2007).

Key:
[1] = system: wheat (Triticum aestivum, variety "TRISO"); assay: Root growth assay, seed treatment, wheat; assay type: in vivo; set-up: key to Root Growth (Root Growth of "100" is set as the standard): relative root growth; 100 = standard (untreated control); details: for Root Growth (Root Growth of "100" is set as the standard): wet root weight 16 (±2) days post treatment; for effect as plant growth regulator in wheat: result in words, at various/different concentrations
Excerpt: (§1) Plant roots are a highly proliferative tissue that allows an easy accessible, cheap and short term screening method for plant growth regulators. The results obtained can easily be transferred to the overall effects on a plant of plant growth regulators identified by such a system. By using this root assay one is enabled to determine the effect of a seed treatment to root growth and/or germination and/or changes in habitat of germinated plants in order to identify the possible use as a yield enhancer. Two seeds of wheat (Triticum aestivum, variety “TRISO”) or 1 seed of maize (Zea mays, variety “LORENZO”) per hole in a plastic tray which contains an architecture of 8×13 holes were placed on compost soil covered with sand. These seeds were treated with 100 μl/hole, which creates an application volume of approx. 1200 l/ha, of a compound solution at active ingredient rates equivalent to 100, 10 and 1 g a.i./ha of each compound using an robotic application system (Lizzy Spray Robotics). Six replicates in a row of each compound and concentration were done. The outer rim of the above defined plastic tray was untreated to avoid false negative effects and the middle row (No. 7) was used as untreated control. The treated seeds were allowed to dry for approx. 4 hours and subsequently covered with sand and watered. The trays were stored in climate chambers with 14 hours lighting at a temperature of 24° C. (±2) at daytime and 16° C. (±2) at night and relative humidity (rH) of 60% and daily watered. Assessments were done 16 (±2) days post treatment by counting the germinated plants and assessing the phytotoxicity symptoms and percentage. In addition, the roots were washed out and the shoots were cut directly above the seed and the wet roots were placed on dry paper towels for approximately 30 minutes and weighted afterwards. This procedure provides a similar grade of moisture to the roots so that a comparison of the weights is possible.
(§2) The effects observed concerning Root Growth given in column 2 (Root Growth of “100” is set as the standard) are directed to concentrations that are equivalent to 100, 10, 1 g a.i./ha, each.

[2] = system: maize (Zea mays, variety "LORENZO"); assay: Root growth assay, seed treatment, maize; assay type: in vivo; details: for Root Growth (Root Growth of "100" is set as the standard): wet root weight 16 (±2) days post treatment; for effect as plant growth regulator in maize: result in words
Excerpt: as §1, §2

melting point [°C]	SMILES	Root Growth (Root Growth of "100" is set as the standard) ([1]; 1 g a.i./ha)	Root Growth (Root Growth of "100" is set as the standard) ([1]; 10 g a.i./ha)	Root Growth (Root Growth of "100" is set as the standard) ([1]; 100 g a.i./ha)	effect as plant growth regulator in wheat [1]	Root Growth (Root Growth of "100" is set as the standard) ([2]; 1 g a.i./ha)	Root Growth (Root Growth of "100" is set as the standard) ([2]; 10 g a.i./ha)	Root Growth (Root Growth of "100" is set as the standard) ([2]; 100 g a.i./ha)	effect as plant growth regulator in maize [2]
	Nc1nc(Nc2ccccc2)sc1C(=O)c1ccc(OC(F)F)cc1 [Compound 1.53]	125	107	101	superior effects	91	85	108	superior effects
	Nc1nc(Nc2cccc(C(F)(F)F)c2)sc1C(=O)c1ccc(OC(F)F)cc1 [Compound 1.58]	123	112	103	superior effects	91	107	105	superior effects
143	Nc1nc(Nc2cccnc2)sc1C(=O)c1ccc(OC(F)F)cc1 [Compound 1.60, [4-Amino-2-(pyridin-3-yl-amino)-thiazol-5-yl]-(4-difluoromethoxyphenyl)-methanone]	98	57	54		191	105	109	superior effect
	Nc1nc(Nc2ccccc2)sc1C(=O)c1cccs1 [Compound 1.79]	88	88	73		108	116	105	superior effect
	Nc1nc(Nc2ccccc2)sc1C(=O)c1cccnc1 [Compound 1.105]	72	99	123	superior effect				
	COc1ccc(Nc2nc(N)c(C(=O)c3cccnc3)s2)cc1 [Compound 1.106]	145	99	90	superior effect				
	N#Cc1ccc(Nc2nc(N)c(C(=O)c3cccnc3)s2)cc1 [Compound 1.108]	78	95	131	superior effect				
	CSc1ccc(Nc2nc(N)c(C(=O)c3cccnc3)s2)cc1 [Compound 1.117]	111	126	125					
	Nc1nc(Nc2ccc(OC(F)(F)F)cc2)sc1C(=O)c1cccnc1 [Compound 1.118]	95	122	113					
	Nc1nc(NCC2CCCCC2)sc1C(=O)C(Cc1ccccc1)NC(=O)OCc1ccccc1 (stereo not shown) [Compound 1.139]	130	66	120					
